Key:
[1] = test system: model mouse with the inflammation in brain induced by administering LPS; assay: Forced swimming test in mouse with inflammation in brain induced by LPS (Test Example 5); format: in vivo, C57/BL6J mice; conditions: test 24 hours after LPS, FIG. 5
Source text: In regard to the depressive symptoms induced by taking LPS (Lipopolysaccharide), the effect of inhibiting the symptom by oral administration of the compound A was examined. The inflammation in the brain is thought to be one of the main onset factors of depression. It is known that LPS causes the inflammation in the brain by inducing the decrease in brain-derived neurotrophic factor and the variation of the density of dendrite of neuron, activating microglia and the like and induce depressive symptoms. […]
In 24 hours after the intraperitoneal administration of LPS, forced swimming test was conducted. The depressive symptoms were evaluated by measurement of the immobility time.
Water (25±1° C.) was put into the acryl resin cylinder (diameter 19 cm, height 25 cm) up to a height of 13 cm. The subject mouse was forced to swim for 6 minutes one by one and the state was video-recorded. […] “The state that the mouse floated on the water surface without moving its limbs and the like” was regarded as immobility and the Immobility Time (sec.) was measured during the test of 6 minutes.
From the results obtained, the mean (Mean) and the standard error (SEM) were calculated. The significant difference was assessed between the control group and Vehicle group and between the compound A administration group and the […] by using Turkey-Kramer's test. […]

[2] = test system: mouse reared in long-term isolation; assay: Novel object recognition test in psychiatric disorder model mouse reared in long-term isolation, single oral dose (Test Example 3); format: in vivo, ddY mouse; conditions: tested 24 hours after administration; for exploratory time of the novel object versus Vehicle group: FIG. 3(A)
Protocol: The action of ameliorating the lowering of the object cognitive function was examined by orally administering the compound A to the mouse reared in long-term isolation. […] In this test, the mouse reared in long-term isolation under the following condition was used as the psychiatric disorder model mouse.
3-weeks-old male ddY mice were purchased from Japan SLC, Inc. The mice were reared in the rearing chamber provided with air conditioner (Conditions: the temperature was 22° C.±1° C., the relative humidity was 50±10%, and the irradiation time was 12 hours (8:00 to 20:00)). The feeding method was that the commercially available MF powdery feed (manufactured by Oriental Yeast Co., ltd.) and tap water were taken freely.
3-weeks-old male ddY mice (n=63) were separately reared in the gray opaque cage (24×17×12 cm) in which the mice could not see the surrounding of the cage for 6 weeks. […] The mice (n=20) collectively reared in a group of 5 mice in the transparent cage (24×17×12 cm) were used as a control group.
Four days prior to the start of the experiment, long-term isolation and group-reared mice were individually acclimated to the test observation box for 10 minutes for three consecutive days. […]
24 hours after the oral administration, the evaluation test for novel object cognitive function was carried out. One object of two objects put in the observation box was replaced with the novel object and the time how long the mouse explored the novel object was measured in the test time of 5 minutes. The object cognitive function of the mouse was evaluated by Discrimination index (%) calculated using the following formula. […]
From the results obtained, the mean (Mean) and the standard error (SEM) were calculated. The significant difference was assessed between the administration group and the control group by using Student's t-test as a method of the statistical processing of the exploratory time and by using Turkey-Kramer's test as a method of the statistical processing of Discrimination index. […]

O=C1CC[C@H](Cc2cc(O)cc(O)c2)O1 [compound A, (R)-5-(3,5-dihydroxyphenyl)-γ-valerolactone]
increase of the immobility time in forced swimming test ([1]; oral 10 mg/kg and 30 mg/kg groups, LPS 0.5 mg/kg i.p. 30 minutes later): reduced | immobility time in forced swimming test ([1]; oral 30 mg/kg, LPS 0.5 mg/kg i.p.): on the same level as that in the control group | exploratory time of the novel object versus Vehicle group ([2]; oral 10 mg/kg): significantly increased | exploratory time of the novel object versus Vehicle group ([2]; oral 30 mg/kg): significantly increased | Discrimination index ([2]; oral 30 mg/kg, FIG. 3(B)): equal to the score obtained in the group of the mice reared in a group
